Data as given in ChEMBL document CHEMBL3885881, “DrugMatrix”.

Species on record: Rattus norvegicus
Assay: DrugMatrix - Regimen: Daily Repeat
Format: toxicity, organism-based, Sprague-Dawley
Design: regimen Daily Repeat, gender Male, age 6-8 weeks
Conditions: in vivo, po, route oral GAVAGE, vehicle .5 % CMC; for BASOPHIL / EOSINOPHIL / ERYTHROCYTE COUNT / HEMATOCRIT / HEMOGLOBIN / LEUKOCYTE COUNT / LYMPHOCYTE / MEAN CORPUSCULAR HEMOGLOBIN / MEAN CORPUSCULAR HEMOGLOBIN CONCENTRATION / MEAN CORPUSCULAR VOLUME / MONOCYTE / NEUTROPHIL / PLATELET COUNT: tissue Blood; for ALANINE AMINOTRANSFERASE / ALBUMIN / ALKALINE PHOSPHATASE / ASPARTATE AMINOTRANSFERASE / BLOOD UREA NITROGEN / CHLORIDE / CHOLESTEROL / CREATINE PHOSPHOKINASE / CREATININE / GLUCOSE / PHOSPHORUS / POTASSIUM / SODIUM / TOTAL BILIRUBIN / TOTAL PROTEIN: tissue Plasma
[1] = 75 mg/kg, 120 h, dose level High, time 5 day
[2] = […], 72 h, dose 7.5 mg/Kg, dose level Low, time 3 day
[3] = […], 120 h, dose 7.5 mg/Kg, dose level Low, time 5 day

With `COc1ccc(C2C(=O)c3ccccc3C2=O)cc1` [ANISINDIONE] the BASOPHIL [1] was 0%, the EOSINOPHIL [1] was 0.5% and the “ERYTHROCYTE COUNT” value [1] was 6.19 x10E6/uL. For the same molecule, the HEMATOCRIT [1] was 36.1%, the HEMOGLOBIN [1] was 14.4 G/DL and the “LEUKOCYTE COUNT” value [1] was 13.5 x10E3/uL. The LYMPHOCYTE [1] was 85.5%, the “MEAN CORPUSCULAR HEMOGLOBIN” value [1] was 23.25 pg and the “MEAN CORPUSCULAR HEMOGLOBIN CONCENTRATION” value [1] was 39.9 G/DL. For the same molecule, the “MEAN CORPUSCULAR VOLUME” value [1] was 58.3 fL, the MONOCYTE [1] was 1.5% and the NEUTROPHIL [1] was 12.5%. The “PLATELET COUNT” value [1] was 1096 x10E3/uL, the “ALANINE AMINOTRANSFERASE” value [1] was 36.5 u/L and the ALBUMIN [1] was 3.75 G/DL. For the same molecule, the “ALKALINE PHOSPHATASE” value [1] was 318 u/L, the “ASPARTATE AMINOTRANSFERASE” value [1] was 61.5 u/L and the “BLOOD UREA NITROGEN” value [1] was 14 mg/dL. For the same molecule, the CHLORIDE [1] was 104 MEQ/L, the CHOLESTEROL [1] was 40.5 mg/dL and the “CREATINE PHOSPHOKINASE” value [1] was 138.5 u/L. The CREATININE [1] was 0.55 mg/dL, the GLUCOSE [1] was 161 mg/dL and the PHOSPHORUS [1] was 10.3 mg/dL. The POTASSIUM [1] was 6.15 MEQ/L, the SODIUM [1] was 150 MEQ/L and the “TOTAL BILIRUBIN” value [1] was 0.55 mg/dL. The “TOTAL PROTEIN” value [1] was 6.2 G/DL, the BASOPHIL [2] was 0% and the EOSINOPHIL [2] was 1%. The “ERYTHROCYTE COUNT” value [2] was 6.37 x10E6/uL, the HEMATOCRIT [2] was 38.8% and the HEMOGLOBIN [2] was 15.33 G/DL. For the same molecule, the “LEUKOCYTE COUNT” value [2] was 10.33 x10E3/uL, the LYMPHOCYTE [2] was 83.67% and the “MEAN CORPUSCULAR HEMOGLOBIN” value [2] was 24.07 pg. For the same molecule, the “MEAN CORPUSCULAR HEMOGLOBIN CONCENTRATION” value [2] was 39.53 G/DL, the “MEAN CORPUSCULAR VOLUME” value [2] was 60.9 fL and the MONOCYTE [2] was 3.33%. For the same molecule, the NEUTROPHIL [2] was 12%, the “PLATELET COUNT” value [2] was 1127.67 x10E3/uL and the “ALANINE AMINOTRANSFERASE” value [2] was 31.33 u/L. The ALBUMIN [2] was 3.87 G/DL, the “ALKALINE PHOSPHATASE” value [2] was 294.67 u/L and the “ASPARTATE AMINOTRANSFERASE” value [2] was 62.33 u/L. The “BLOOD UREA NITROGEN” value [2] was 14.33 mg/dL, the CHLORIDE [2] was 103.67 MEQ/L and the CHOLESTEROL [2] was 76 mg/dL. For the same molecule, the “CREATINE PHOSPHOKINASE” value [2] was 156 u/L, the CREATININE [2] was 0.7 mg/dL and the GLUCOSE [2] was 185.67 mg/dL. The PHOSPHORUS [2] was 12.2 mg/dL, the POTASSIUM [2] was 7.33 MEQ/L and the SODIUM [2] was 149.67 MEQ/L. The “TOTAL BILIRUBIN” value [2] was 0.53 mg/dL, the “TOTAL PROTEIN” value [2] was 6.23 G/DL and the BASOPHIL [3] was 0%. The EOSINOPHIL [3] was 0%, the “ERYTHROCYTE COUNT” value [3] was 6.33 x10E6/uL and the HEMATOCRIT [3] was 38.27%. For the same molecule, the HEMOGLOBIN [3] was 15.1 G/DL, the “LEUKOCYTE COUNT” value [3] was 12.9 x10E3/uL and the LYMPHOCYTE [3] was 81.33%. The “MEAN CORPUSCULAR HEMOGLOBIN” value [3] was 23.87 pg, the “MEAN CORPUSCULAR HEMOGLOBIN CONCENTRATION” value [3] was 39.47 G/DL and the “MEAN CORPUSCULAR VOLUME” value [3] was 60.5 fL. The MONOCYTE [3] was 2.33%, the NEUTROPHIL [3] was 16.33% and the “PLATELET COUNT” value [3] was 999.67 x10E3/uL. For the same molecule, the “ALANINE AMINOTRANSFERASE” value [3] was 37 u/L, the ALBUMIN [3] was 3.87 G/DL and the “ALKALINE PHOSPHATASE” value [3] was 349.67 u/L. For the same molecule, the “ASPARTATE AMINOTRANSFERASE” value [3] was 67.67 u/L, the “BLOOD UREA NITROGEN” value [3] was 14 mg/dL and the CHLORIDE [3] was 104 MEQ/L. For the same molecule, the CHOLESTEROL [3] was 70.33 mg/dL, the “CREATINE PHOSPHOKINASE” value [3] was 150.33 u/L and the CREATININE [3] was 0.7 mg/dL. It also gave a GLUCOSE [3] of 172 mg/dL, a PHOSPHORUS [3] of 10.37 mg/dL and a POTASSIUM [3] of 6.23 MEQ/L. For the same molecule, the SODIUM [3] was 149.67 MEQ/L, the “TOTAL BILIRUBIN” value [3] was 0.57 mg/dL and the “TOTAL PROTEIN” value [3] was 6.2 G/DL.
